# Data published in US20210290644A1, “COMPOUNDS AND METHODS FOR TREATING FUNGAL INFECTIONS” (Amplyx Pharmaceuticals, Inc., priority 2018, published 2021).
# Values joined by “and” are separate entries in the source; they are usually repeats but may differ in a detail not shown here. Equal values may be shown once.
# Experiment: Study #2 Phase 1: pharmacokinetics after single IV and single/multiple oral doses of Compound 1, absolute oral bioavailability;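 note: phase 1 study design: one IV dose, then escalating single oral doses, fed versus fasted single oral dosing, and once-daily oral dosing over 14 days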
# [1] = oral Compound 1 QD × 14 days, 3 cohorts
# [2] = single oral doses of Compound 1 100 mg to 500 mg, fasted
smiles,measurement,setting,value
Nc1ncccc1-c1cc(Cc2ccc(COc3ccccn3)cc2)no1 [Compound 1A],AUC(0-inf),"human, plasma, iv, 200 mg",87.5 µg·h/mL
same,Vd,"human, plasma, iv, 200 mg",124 L and 1.6 L/kg
same,clearance,"human, plasma, iv, 200 mg",29.1 mL/min and 0.377 mL/min/kg
same,AUC(0-t),"human, plasma, iv, 200 mg, AUC(0-24), 200 mg/3 hr IV Compound 1, fasted, geometric mean",24.4 µg·h/mL
same,AUC(0-t),"human, plasma, iv, 200 mg, AUC(0-t), 200 mg/3 hr IV Compound 1, fasted, geometric mean",86.3 µg·h/mL
same,Cmax,"human, plasma, iv, 200 mg, 200 mg/3 hr IV Compound 1, fasted, geometric mean",2640 ng/mL
same,Tmax,"human, plasma, iv, 200 mg, Tmax, 200 mg/3 hr IV Compound 1, fasted, median",3 h
same,half-life,"human, plasma, iv, 200 mg, geometric mean t1/2, IV treatment, 200 mg Compound 1 over 3 hrs",49.1 h
same,half-life,"human, plasma, iv, 200 mg, t½, 200 mg/3 hr IV Compound 1, fasted, geometric mean",49.1 h
same,bioavailability,"human, plasma, oral",90.6 to 101%
same,AUC(0-t),"human, plasma, oral, 500 mg, AUC(0-24), Day 1, Cohort 2, 500 mg Tablets QD × 14 Days, fed, geometric mean",50.7 µg·h/mL
same,AUC(0-t),"human, plasma, oral, 500 mg, AUC(0-24), Day 7, Cohort 2, 500 mg Tablets QD × 14 Days, fed, geometric mean",154 µg·h/mL
same,AUC(0-t),"human, plasma, oral, 500 mg, AUC(0-24), Day 14, Cohort 2, 500 mg Tablets QD × 14 Days, fed, geometric mean",191 µg·h/mL
same,CL/F,"human, plasma, oral, 500 mg, CL, Day 14, Cohort 2, 500 mg Tablets QD × 14 Days, fed, geometric mean",0.462 mL/min/kg
same,Cmax,"human, plasma, oral, 500 mg, Day 1, Cohort 2, 500 mg Tablets QD × 14 Days, fed, geometric mean",6180 ng/mL
same,Cmax,"human, plasma, oral, 500 mg, Day 7, Cohort 2, 500 mg Tablets QD × 14 Days, fed, geometric mean",10900 ng/mL
same,Cmax,"human, plasma, oral, 500 mg, Day 14, Cohort 2, 500 mg Tablets QD × 14 Days, fed, geometric mean",12000 ng/mL
same,Tmax,"human, plasma, oral, 500 mg, Tmax, Day 1, Cohort 2, 500 mg Tablets QD × 14 Days, fed, median",4 h
same,Tmax,"human, plasma, oral, 500 mg, Tmax, Day 7, Cohort 2, 500 mg Tablets QD × 14 Days, fed, median",3.76 h
same,Tmax,"human, plasma, oral, 500 mg, Tmax, Day 14, Cohort 2, 500 mg Tablets QD × 14 Days, fed, median",3.75 h
same,half-life,"human, plasma, oral, 500 mg, T½, Day 14, Cohort 2, 500 mg Tablets QD × 14 Days, fed, geometric mean",73.4 h
same,AUC(0-t),"human, plasma, oral, 1000 mg, AUC(0-24), Day 1, Cohort 3, 1000 mg Tablets QD × 14 Days, fed, geometric mean",119 µg·h/mL
same,AUC(0-t),"human, plasma, oral, 1000 mg, AUC(0-24), Day 7, Cohort 3, 1000 mg Tablets QD × 14 Days, fed, geometric mean",316 µg·h/mL
same,AUC(0-t),"human, plasma, oral, 1000 mg, AUC(0-24), Day 14, Cohort 3, 1000 mg Tablets QD × 14 Days, fed, geometric mean",326 µg·h/mL
same,CL/F,"human, plasma, oral, 1000 mg, CL, Day 14, Cohort 3, 1000 mg Tablets QD × 14 Days, fed, geometric mean",0.582 mL/min/kg
same,Cmax,"human, plasma, oral, 1000 mg, Day 1, Cohort 3, 1000 mg Tablets QD × 14 Days, fed, geometric mean",10600 ng/mL
same,Cmax,"human, plasma, oral, 1000 mg, Day 7, Cohort 3, 1000 mg Tablets QD × 14 Days, fed, geometric mean",21300 ng/mL
same,Cmax,"human, plasma, oral, 1000 mg, Day 14, Cohort 3, 1000 mg Tablets QD × 14 Days, fed, geometric mean",21300 ng/mL
same,Tmax,"human, plasma, oral, 1000 mg, Tmax, Day 1, Cohort 3, 1000 mg Tablets QD × 14 Days, fed, median",4.5 h
same,Tmax,"human, plasma, oral, 1000 mg, Tmax, Day 7, Cohort 3, 1000 mg Tablets QD × 14 Days, fed, median",4 h
same,Tmax,"human, plasma, oral, 1000 mg, Tmax, Day 14, Cohort 3, 1000 mg Tablets QD × 14 Days, fed, median",3.77 h
same,half-life,"human, plasma, oral, 1000 mg, T½, Day 14, Cohort 3, 1000 mg Tablets QD × 14 Days, fed, geometric mean",52.6 h
same,bioavailability,"human, plasma, po, 100 mg",90.6%
same,Tmax,"human, plasma, po, 100 mg, Tmax, 100 mg Oral Compound 1, fasted, median",2 h
same,AUC(0-inf),"human, plasma, po, 300 mg",122 µg·h/mL
same,Vd/F,"human, plasma, po, 300 mg",142 L and 1.84 L/kg
same,bioavailability,"human, plasma, po, 300 mg",93.1%
same,AUC(0-t),"human, plasma, po, 300 mg, AUC(0-24), 300 mg Oral Compound 1, fasted, geometric mean",35.6 µg·h/mL
same,AUC(0-t),"human, plasma, po, 300 mg, AUC(0-t), 300 mg Oral Compound 1, fasted, geometric mean",118 µg·h/mL
same,CL/F,"human, plasma, po, 300 mg, CL/F, 300 mg Oral Compound 1, fasted, geometric mean",0.405 mL/min/kg
same,Cmax,"human, plasma, po, 300 mg, 300 mg Oral Compound 1, fasted, geometric mean",3750 ng/mL
same,Tmax,"human, plasma, po, 300 mg, Tmax, 300 mg Oral Compound 1, fasted, median",2.5 h
same,half-life,"human, plasma, po, 300 mg, t½, 300 mg Oral Compound 1, fasted, geometric mean",52.5 h
same,bioavailability,"human, plasma, po, 400 mg",101%
same,Tmax,"human, plasma, po, 400 mg, Tmax, 400 mg Oral Compound 1, fasted, median",2.5 h
same,AUC(0-inf),"human, plasma, po, 500 mg",205 µg·h/mL
same,Vd/F,"human, plasma, po, 500 mg",121 L and 1.62 L/kg
same,bioavailability,"human, plasma, po, 500 mg",93.5%
same,AUC(0-t),"human, plasma, po, 500 mg, AUC(0-24), 500 mg Oral Compound 1, fasted, geometric mean",59 µg·h/mL
same,AUC(0-t),"human, plasma, po, 500 mg, AUC(0-24), Day 1, Cohort 4, 500 mg Oral Solution QD × 14 Days, fed, geometric mean",56.7 µg·h/mL
same,AUC(0-t),"human, plasma, po, 500 mg, AUC(0-24), Day 7, Cohort 4, 500 mg Oral Solution QD × 14 Days, fed, geometric mean",140 µg·h/mL
same,AUC(0-t),"human, plasma, po, 500 mg, AUC(0-24), Day 14, Cohort 4, 500 mg Oral Solution QD × 14 Days, fed, geometric mean",153 µg·h/mL
same,AUC(0-t),"human, plasma, po, 500 mg, AUC(0-t), 500 mg Oral Compound 1, fasted, geometric mean",197 µg·h/mL
same,CL/F,"human, plasma, po, 500 mg, CL, Day 14, Cohort 4, 500 mg Oral Solution QD × 14 Days, fed, geometric mean",0.555 mL/min/kg
same,CL/F,"human, plasma, po, 500 mg, CL/F, 500 mg Oral Compound 1, fasted, geometric mean",0.418 mL/min/kg
same,Cmax,"human, plasma, po, 500 mg, 500 mg Oral Compound 1, fasted, geometric mean",6410 ng/mL
same,Cmax,"human, plasma, po, 500 mg, Day 1, Cohort 4, 500 mg Oral Solution QD × 14 Days, fed, geometric mean",5850 ng/mL
same,Cmax,"human, plasma, po, 500 mg, Day 7, Cohort 4, 500 mg Oral Solution QD × 14 Days, fed, geometric mean",10400 ng/mL
same,Cmax,"human, plasma, po, 500 mg, Day 14, Cohort 4, 500 mg Oral Solution QD × 14 Days, fed, geometric mean",12300 ng/mL
same,Tmax,"human, plasma, po, 500 mg, Tmax, 500 mg Oral Compound 1, fasted, median",3 h
same,Tmax,"human, plasma, po, 500 mg, Tmax, Day 1, Cohort 4, 500 mg Oral Solution QD × 14 Days, fed, median",2 h
same,Tmax,"human, plasma, po, 500 mg, Tmax, Day 7, Cohort 4, 500 mg Oral Solution QD × 14 Days, fed, median",2 h
same,Tmax,"human, plasma, po, 500 mg, Tmax, Day 14, Cohort 4, 500 mg Oral Solution QD × 14 Days, fed, median",1 h
same,half-life,"human, plasma, po, 500 mg, T½, Day 14, Cohort 4, 500 mg Oral Solution QD × 14 Days, fed, geometric mean",55.4 h
same,half-life,"human, plasma, po, 500 mg, t½, 500 mg Oral Compound 1, fasted, geometric mean",44.9 h
same,half-life,"human, plasma, po, geometric mean t1/2, range across treatments, 4 oral treatments of Compound 1",44.9 to 64.7 h
same,Tmax,"human, plasma, po, median tmax, range across doses and study days, oral Compound 1 500 mg and 1000 mg QD × 14 days, fed",2 to 3 h
same,Tmax,"human, plasma, po, median tmax, range across doses, 4 single oral doses of Compound 1",2 to 3 h
same,"median accumulation, ratio of AUC0-24 on Day 14 to Day 1",[1],2.95
same,"median accumulation, ratio of Cmax on Day 14 to Day 1",[1],1.99
same,increase in geometric mean Cmax and AUC0-24 from 500 mg to 1000 mg,"oral QD × 14 days, Days 1, 7, and 14",~2 fold
same,slope of log-log AUC(inf) vs. dose (power model parameter b),[2],1.04±0.046
same,slope of log-log Cmax vs. dose (power model parameter b),[2],0.935±0.077
